One may read the IC50 as the concentration at which inhibition is half-maximal.

Read-outs that look alike come from different tables or passages of the source.

In assay [1] the test system is A549 Human lung carcinoma cells. Briefly: A549 Human Lung Cell Assay (transfected cells, dexamethasone challenge, luciferase read-out). Type of assay: cell-based. Conditions: test compound 10 min then dexamethasone challenge, 24 h, Luc-assay, read-out: A 549 IC50. Here is the method:
A549Human Lung Cell Assay
A549Human lung carcinoma cells were grown in F-12K Nutrient Mixture containing 10% (v/v) fetal bovine serum (FBS; Invitrogen), 2 mM glutamine and 0.15% sodium dicarbonate (Invitrogen).
A549 cells were split 1 to 3 in 175 cm tissue culture flask. The cells were incubated at 37° C. in CO2 incubator until the cells were 95% confluent (typically 24-30 hours).
The following solutions were prepared in sterile tubes: (a) Solution A 1.5 μg/ml of DNA in 8.5 ml OPTI-MEM I Reduced Serum Medium. (GIBCO cat# 31985) and (b) Solution B: 6 μl/ml of DMRIE-C Reagent into […] OPTI-MEM I. The two solutions were combined and mixed gently, then incubated at room temperature for 40 minutes.
The A549 cells prepared above were washed with […] of OPTI-MEM I. The medium was removed and 17 ml of the lipid-DNA complex solution was overlayed onto cells. The cells ere then incubated for 16 h at 37° C. in CO2 incubator. The DNA-containing medium was removed and 30 ml of growth medium was added. (5% Charcoal treated FBS) After 5-6 h, the cells were seeded in a 96 well plate and the cells incubated overnight at 37° C. in CO2 incubator.
To each well was then added 5 μl of test compounds and the cells incubated at 37° C. for 10 min. 5 μL of dexamathasone (CAS [50-02-2]), was then added to each well for challenger and the cells incubated at 37° C. in CO2 incubator for 24 h. 100 μl of Luc-assay buffer was then added into each cell well and the cells incubated for 30 min at room temperature. A 150 μL sample from each well was then transferred into a DYNEX Microlitel plate and read on Top-counter.
(§1) Representative compounds of the present invention were tested according to the procedures described in Examples 45 and 46 above, with results as listed in Table 2 below.

Assay [2] deals with T47D human breast cancer cells. The experiment in a line: T47D Human Breast Cancer Cells Assay (alkaline phosphatase, luminescence). The class given is cell-based. Here is the method: T47D Human Breast Cancer Cells Assay
T47D human breast cancer cells were grown in RPMI medium without phenol red (Invitrogen) containing 10% (v/v) heat-inactivated fetal bovine serum (FBS; Hyclone), 1% (v/v) penicillin-streptomycin (Invitrogen), 1% (w/v) glutamine (Invitrogen), and […] insulin (Sigma). Incubation conditions were 37° C. in a humidified 5% (v/v) carbon dioxide environment.
The cells were plated in 96-well tissue culture plates at 10,000 cells per well in assay medium [RPMI medium without phenol red (Invitrogen) containing 5% (v/v) charcoal-treated FBS (Hyclone) and 1% (v/v) penicillin-streptomycin (Invitrogen)]. Two days later, the medium was decanted and test compound or control were added at a final concentration of 0.1% (v/v) dimethyl sulfoxide in fresh assay medium. Twenty-four hours later, an alkaline phosphatase assay was performed using a SEAP kit (BD Biosciences Clontech, Palo Alto, Calif.). Briefly, the medium was decanted and the cells were fixed for 30 minutes at room temperature with 5% (v/v) formalin (Sigma). The cells were washed once with room temperature Hank's buffered saline solution (Invitrogen). Equal volumes (0.05 mL) of 1× Dilution Buffer, Assay Buffer and 1:20 substrate/enhancer mixture were then added. After 1 hour incubation at room temperature in the dark, the lysate was transferred to a white 96-well plate (Dynex) and luminescence was read using a LuminoSkan Ascent (Thermo Electron, Woburn, Mass.).
as §1

Setting [3] is: Homo sapiens, T47D, 24 h, read-out: T47D IC50 (nM), T47D cells, 24 h with test compound, alkaline phosphatase assay (SEAP kit).
Setting [4] is: read-out: T47D IC50, T47D cells, 24 h with test compound, alkaline phosphatase assay (SEAP kit).

In the case of `C=C(CCO)[C@]1(O)CCC2C3CCC4=CC(=O)CCC4=C3[C@@H](c3ccc(OC)cc3)OC[C@@]21C` (some centres unmarked) [Compound 24], the IC50 in assay [1] (Homo sapiens, A549, A549 cells) came out at 0.771 µM; in assay [2] (setting [3]) it was 176 nM; in assay [2] (setting [4]), 130 nM.

For `CSc1ccc(C2OCC3(C)C(CCC3(O)C(F)(F)C(F)(F)F)C3CCC4=CC(=O)CCC4=C23)cc1` (centres unmarked) [Compound 4, 1-Hydroxy-12a-methyl-10-(4-methylsulfanyl-phenyl)-1-pentafluoroethyl-2,3,3a,3b4,5,9,10,12,12a-decahydro-1H,8H-11-oxa-naphtho[2,1-e]azulen-7-one], the IC50 turned out to be 0.0687 µM in assay [1] (A549 cells) and 33.2 nM in assay [2] (T47D cells, 24 h with test compound, alkaline phosphatase assay (SEAP kit), read-out: T47D IC50).

For `C=C(C)[C@]1(O)CCC2C3CCC4=CC(=O)CCC4=C3[C@@H](c3ccc(N(C)C)cc3)OC[C@@]21C` (some centres unmarked) [Compound 1, 10-(4-Dimethylamino-phenyl)-1-hydroxy-1-isopropenyl-12a methyl-2,3,3a,3b,4,5,9,10,12,12a-decahydro-1H,8H-11-oxa-naphtho[2,1 e]azulen-7-one], the IC50 in assay [1] (Homo sapiens, A549, A549 cells) was found to be 0.0501 µM; in assay [2] (setting [3]) it was 0.4 nM.

Consider `C=CC[C@]1(O)CCC2C3CCC4=CC(=O)CCC4=C3[C@H](c3ccc(OC)cc3)OC[C@@]21C` (stereo partly drawn) [Compound 18, 1-Allyl-1-hydroxy-10α-(4-methoxy-phenyl)-12a-methyl 2,3,3a,3b,4,5,9,10,12,12a-decahydro-1H,8H-11-oxa-naphtho[2,1-e]azulen-7-one], for which the IC50 in assay [1] (Homo sapiens, A549, A549 cells) is above 3 µM; in assay [2] (setting [3]) it was above 1000 nM.

As for `COc1ccc([C@@H]2OC[C@@]3(C)C(CC[C@@]3(O)C#CC(F)(F)F)C3CCC4=CC(=O)CCC4=C32)cc1` (some centres unmarked) [Compound 20, 1-Hydroxy-10-[…]-(4-methoxy-phenyl)-12a-methyl-1-trifluoroprop-1-ynyl-2,3,3a,3b,4,5,9,10,12,12a-decahydro-1H,8H-11-oxa-naphtho[2,1-e]azulen-7-one], the IC50 in assay [1] (Homo sapiens, A549, A549 cells) was above 3 µM; in assay [2] (setting [3]) it was above 1000 nM.

Turning to `CC#C[C@]1(O)CCC2C3CCC4=CC(=O)CCC4=C3[C@@H](c3ccc(N(C)C)cc3)OC[C@@]21C` (some centres unmarked) [Compound 7, 10-(4-Dimethylamino-phenyl)-1-hydroxy-12a-methyl-1-prop-1-ynyl-2,3,3a,3b,4,5,9,10,12,12a-decahydro-1H,8H-11-oxa-naphtho[2,1-e]azulen-7-one], the half-inhibitory concentration (IC50) was 0.0162 µM in assay [1] (Homo sapiens, A549, A549 cells) and 116 nM in assay [2] (setting [3]).

Take `C=C(C)[C@]1(O)CCC2C3CCC4=CC(=O)CCC4=C3[C@@H](c3ccc(SC)cc3)OC[C@@]21C` (some centres unmarked) [Compound 2, 1-Hydroxy-1-isopropenyl-12a-methyl-10-(4-methylsulfanyl-phenyl)-2,3,3a,3b,4,5,9,10,12,12a-decahydro-1H,8H-11-oxa-naphtho[2,1-e]azulen-7-one]: the IC50 was found to be 0.0582 µM in assay [1] (Homo sapiens, A549, A549 cells) and 5.12 nM in assay [2] (setting [3]).

Consider `COc1ccc([C@@H]2OC[C@@]3(C)C(CC[C@@]3(O)C#Cc3ccc(C(F)(F)F)cc3)C3CCC4=CC(=O)CCC4=C32)cc1` (some centres unmarked) [Compound 22, 1-Hydroxy-10-(4-methoxy-phenyl)-12a-methyl-1-(4-trifluoromethylphenylethynyl)-2,3,3a,3b,4,5,9,10,12,12a-decahydro-1H,8H-11-oxa-naphtho[2,1-e]azulen-7-one], for which the IC50 in assay [1] (Homo sapiens, A549, A549 cells) was above 3 µM; in assay [2] (setting [3]) it was above 1000 nM.

As to `COc1ccc([C@H]2OC[C@@]3(C)C(CC[C@@]3(O)C#Cc3ccccc3)C3CCC4=CC(=O)CCC4=C32)cc1` (some centres unmarked) [Compound 16, 1-Hydroxy-10-(4-methoxy-phenyl)-12a-methyl-1-phenylethynyl-2,3,3a,3b,4,5,9,10,12,12a-decahydro-1H,8H-11-oxa-naphtho[2,1-e]azulen-7-one], the IC50 is above 3 µM in assay [1] (A549 cells) and above 1000 nM in assay [2] (setting [4]).

In the case of `COc1ccc([C@H]2OC[C@@]3(C)C(CC[C@@]3(O)C#Cc3ccc(C(F)(F)F)cc3)C3CCC4=CC(=O)CCC4=C32)cc1` (some centres unmarked) [Compound 6, 1-Hydroxy-10-(4-methoxy-phenyl)-12a-methyl-1-(4-trifluoromethyl-phenylethynyl)-2,3,3a,3b,4,5,9,10,12,12a-decahydro-1H,8H-11-oxa-naphtho[2,1-e]azulen-7-one], the results for the concentration for half-maximal inhibition (IC50) in assay [1] (A549 cells) and in assay [2] (setting [4]) were 0.109 µM and 83 nM, respectively.

Regarding `COc1ccc([C@H]2OC[C@@]3(C)C(CC[C@@]3(O)C#Cc3ccc(C(C)(C)C)cc3)C3CCC4=CC(=O)CCC4=C32)cc1` (some centres unmarked) [Compound 9, 1-(4-tert-Butyl-phenylethynyl)-1-hydroxy-10-(4-methoxy-phenyl)-12a-methyl-2,3,3a,3b,4,5,9,10,12,12a-decahydro-1H,8H-11-oxa-naphtho[2,1-e]azulen-7-one], the IC50 in assay [1] (Homo sapiens, A549, A549 cells) turned out to be 0.626 µM; in assay [2] (setting [3]), 264 nM.

In the case of `CC#C[C@]1(O)CCC2C3CCC4=CC(=O)CCC4=C3[C@@H](c3ccc(OC)cc3)OC[C@@]21C` (some centres unmarked) [Compound 14, 1-Hydroxy-10-(4-methoxy-phenyl)-12a-methyl-1-prop-1-ynyl-2,3,3a,3b,4,5,9,10,12,12a-decahydro-1H,8H-11-oxa-naphtho[2,1-e]azulen-7-one], the IC50 in assay [1] (Homo sapiens, A549, A549 cells) was 0.046 µM; in assay [2] (setting [3]), above 1000 nM.

Turning to `C=CC[C@]1(O)CCC2C3CCC4=CC(=O)CCC4=C3[C@@H](c3ccc(OC)cc3)OC[C@@]21C` (some centres unmarked) [Compound 17, 1-Allyl-1-hydroxy-10-(4-methoxy-phenyl)-12a-methyl 2,3,3a,3b,4,5,9,10,12,12a-decahydro-1H,8H-11-oxa-naphtho[2,1-e]azulen-7-one], the IC50 in assay [1] (Homo sapiens, A549, A549 cells) was 0.114 µM; in assay [2] (setting [3]), above 1000 nM.

For the compound `CSc1ccc([C@H]2OC[C@@]3(C)C(CC[C@@]3(O)C(F)(F)C(F)(F)F)C3CCC4=CC(=O)CCC4=C32)cc1` (some centres unmarked) [Compound 5], the IC50 in assay [1] (Homo sapiens, A549, A549 cells) was 0.00706 µM; in assay [2] (setting [3]), 54 nM.

The values are drawn from patent US7390831B2, “Tetracyclic steroid derivatives useful as progesterone receptor modulators” (Janssen Pharmaceutica N.V., priority 2006, dated 2008).
